Test results reported in patent US9120752B2, “Pyridine compounds as sodium channel blockers” (Purdue Pharma, L.P., priority 2010, dated 2015).

Experiments:
[1] = tested on: FCA-induced inflammation of the rat hind paw; test: Freund's complete adjuvant (FCA) model of inflammatory pain, paw withdrawal threshold; format: in vivo
Procedure: Each experiment uses rats weighing between 200-260 g at the start of the experiment. The rats are group-housed and have free access to food and water at all times, except prior to oral administration of a test compound when food is removed for 16 hours before dosing. A control group acts as a comparison to rats treated with a compound of Formulae I-XIII. The control group is administered the carrier as used for the test compound. The volume of carrier administered to the control group is the same as the volume of carrier and test compound administered to the test group.
To assess the actions of the compounds of Formulae I-XIII on the treatment of inflammatory pain the Freund's complete adjuvant (“FCA”) model of inflammatory pain was used. […] 24 hour post injection, the animal was assessed for response to noxious mechanical stimuli by determining the paw withdrawal threshold (PWT), or to noxious thermal stimuli by determining the paw withdrawal latency (PWL), as described below. […] Responses to noxious mechanical or thermal stimuli were determined 1, 3, and 5 hours post administration (admin). […]
Sensitivity to noxious mechanical stimuli can be measured in animals using the paw pressure test to assess mechanical hyperalgesia. […] PWT is determined once for each rat at each time point. PWT can be measured only in the injured paw, or in both the injured and non-injured paw. […]

human Nav1.7 = human Nav1.7 (Homo sapiens (Human), UniProt Q15858); test: FLIPR or FLIPR TETRA sodium dye assay with KCl and test article pre-incubation; format: cell-based; conditions: sodium dye assay with KCl; recombinant Nav1.7/HEK293 cells; read-out: Nav1.7 IC50 (μM) ± SEM
Sequence of human Nav1.7 (Q15858 other isoform, or with tags, fused parts or gaps): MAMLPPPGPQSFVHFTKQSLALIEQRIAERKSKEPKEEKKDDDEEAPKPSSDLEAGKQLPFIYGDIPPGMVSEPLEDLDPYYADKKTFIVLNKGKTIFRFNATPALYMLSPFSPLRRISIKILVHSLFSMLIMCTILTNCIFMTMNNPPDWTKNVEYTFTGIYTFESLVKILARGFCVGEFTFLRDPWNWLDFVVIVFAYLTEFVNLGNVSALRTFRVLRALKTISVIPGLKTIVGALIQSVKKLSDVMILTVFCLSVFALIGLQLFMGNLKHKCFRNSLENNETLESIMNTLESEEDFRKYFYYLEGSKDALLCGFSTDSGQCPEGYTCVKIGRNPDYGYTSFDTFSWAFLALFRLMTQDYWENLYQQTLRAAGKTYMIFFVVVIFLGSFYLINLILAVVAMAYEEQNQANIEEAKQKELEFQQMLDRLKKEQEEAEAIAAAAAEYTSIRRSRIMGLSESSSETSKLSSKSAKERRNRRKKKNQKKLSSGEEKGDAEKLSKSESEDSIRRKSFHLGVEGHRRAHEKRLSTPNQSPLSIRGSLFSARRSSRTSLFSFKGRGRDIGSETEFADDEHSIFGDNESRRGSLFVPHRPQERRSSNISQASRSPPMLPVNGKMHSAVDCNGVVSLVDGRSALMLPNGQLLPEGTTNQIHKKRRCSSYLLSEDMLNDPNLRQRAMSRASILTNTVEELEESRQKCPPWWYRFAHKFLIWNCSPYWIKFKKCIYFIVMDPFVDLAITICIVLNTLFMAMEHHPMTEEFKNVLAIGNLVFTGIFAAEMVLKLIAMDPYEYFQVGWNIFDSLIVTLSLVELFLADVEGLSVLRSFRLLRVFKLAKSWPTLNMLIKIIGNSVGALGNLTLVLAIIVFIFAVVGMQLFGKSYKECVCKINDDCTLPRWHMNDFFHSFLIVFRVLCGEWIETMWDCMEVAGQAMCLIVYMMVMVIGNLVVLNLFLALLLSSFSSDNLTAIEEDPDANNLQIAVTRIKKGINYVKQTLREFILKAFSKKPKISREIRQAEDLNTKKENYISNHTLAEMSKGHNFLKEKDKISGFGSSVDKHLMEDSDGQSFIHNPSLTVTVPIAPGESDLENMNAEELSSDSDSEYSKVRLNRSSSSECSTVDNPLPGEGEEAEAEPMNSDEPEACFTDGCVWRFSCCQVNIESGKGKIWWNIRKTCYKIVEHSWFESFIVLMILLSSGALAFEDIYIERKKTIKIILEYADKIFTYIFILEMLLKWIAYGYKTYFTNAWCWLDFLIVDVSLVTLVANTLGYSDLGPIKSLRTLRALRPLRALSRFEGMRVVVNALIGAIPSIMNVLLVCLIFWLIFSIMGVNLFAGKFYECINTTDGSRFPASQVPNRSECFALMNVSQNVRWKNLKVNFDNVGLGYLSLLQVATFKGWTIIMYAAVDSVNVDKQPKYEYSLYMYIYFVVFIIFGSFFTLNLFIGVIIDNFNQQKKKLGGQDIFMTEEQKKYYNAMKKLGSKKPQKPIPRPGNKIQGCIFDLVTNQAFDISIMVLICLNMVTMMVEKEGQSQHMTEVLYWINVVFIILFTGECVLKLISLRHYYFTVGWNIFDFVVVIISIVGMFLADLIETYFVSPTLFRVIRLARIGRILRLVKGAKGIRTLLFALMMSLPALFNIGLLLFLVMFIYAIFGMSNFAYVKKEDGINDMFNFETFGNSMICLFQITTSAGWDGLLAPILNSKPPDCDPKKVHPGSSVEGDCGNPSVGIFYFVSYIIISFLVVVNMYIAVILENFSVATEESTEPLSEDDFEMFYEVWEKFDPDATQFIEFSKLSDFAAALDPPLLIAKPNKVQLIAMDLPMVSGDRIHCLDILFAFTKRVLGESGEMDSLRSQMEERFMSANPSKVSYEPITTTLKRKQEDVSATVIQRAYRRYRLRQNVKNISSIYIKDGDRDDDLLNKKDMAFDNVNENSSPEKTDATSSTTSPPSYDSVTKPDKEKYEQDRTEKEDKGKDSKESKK

| IC50 (human Nav1.7) [µM] | Structure (SMILES) | increase in PWT (paw withdrawal threshold) ([1]; 10 mg/kg, oral (PO), 3 h post administration) | increase in PWT (paw withdrawal threshold) ([1]; 30 mg/kg, oral (PO), 1, 3 and 5 h post administration) |
| --- | --- | --- | --- |
| 1.53 ± 0.33 | NC(=O)[C@H](CO)NC(=O)c1cccc(-c2ccc(Oc3ccc(F)cc3)cc2)n1 [Compound 47, 6-[4-(4-fluoro-phenoxy)-phenyl]-pyridine-2-carboxylic acid ((S)-1-carbamoyl-2-hydroxy-ethyl)-amide] | statistically significant increase | statistically significant increase |
| > 20 | NC(=O)C[C@H](NC(=O)c1cc([C@@H](O)CO)cc(-c2ccc(Oc3ccc(F)cc3)cc2)n1)C(N)=O [Compound 66, (S)-2-(4-((R)-1,2-dihydroxyethyl)-6-(4-(4-fluorophenoxy)phenyl)picolinamido) succinamide] | – | – |
